According to PMC10896213, “Identification of the KIF18A alpha-4 helix as a therapeutic target for chromosomally unstable tumor cells” (Frontiers in Molecular Biosciences, 2023):

Biological target: T1, KIF18A (Homo sapiens, UniProt Q8NI77)
T1 construct: KIF18A (1−417); with pig microtubules (tubulin)
T1 sequence (Q8NI77 1-417): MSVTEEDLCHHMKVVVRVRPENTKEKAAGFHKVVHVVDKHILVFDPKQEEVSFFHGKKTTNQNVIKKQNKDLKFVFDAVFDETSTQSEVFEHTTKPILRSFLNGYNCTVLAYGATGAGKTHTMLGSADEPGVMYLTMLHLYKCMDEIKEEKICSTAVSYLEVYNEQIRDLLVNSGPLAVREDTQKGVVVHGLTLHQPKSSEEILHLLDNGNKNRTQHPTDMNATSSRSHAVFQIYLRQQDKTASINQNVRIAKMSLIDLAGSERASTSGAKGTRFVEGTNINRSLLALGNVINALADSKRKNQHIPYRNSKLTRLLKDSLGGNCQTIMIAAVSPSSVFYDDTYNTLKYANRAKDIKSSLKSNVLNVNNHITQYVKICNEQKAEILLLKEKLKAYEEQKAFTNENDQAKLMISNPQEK
Assay: microtubule-stimulated ATPase assay (ADP-Glo)
Format: biochemical

IC50: 8.2 nM
SMILES: Cc1cc(NC(=O)c2cnc(NS(=O)(=O)CCO)cc2N2CCC3(CC2)CC3)nc(N2CCC(F)(F)CC2)n1 [Compound 3]
